Experimental data: article PMC12612088 (Scientific Reports, 2025)

Molecular target: Pyruvate Dehydrogenase Kinase 3 (PDK3) (Homo sapiens, UniProt Q15120)
Test: BIOMOL Green ATPase assay with purified PDK3
Assay type: biochemical

Pyruvate Dehydrogenase Kinase 3 (PDK3), sequence (Q15120 whole entry): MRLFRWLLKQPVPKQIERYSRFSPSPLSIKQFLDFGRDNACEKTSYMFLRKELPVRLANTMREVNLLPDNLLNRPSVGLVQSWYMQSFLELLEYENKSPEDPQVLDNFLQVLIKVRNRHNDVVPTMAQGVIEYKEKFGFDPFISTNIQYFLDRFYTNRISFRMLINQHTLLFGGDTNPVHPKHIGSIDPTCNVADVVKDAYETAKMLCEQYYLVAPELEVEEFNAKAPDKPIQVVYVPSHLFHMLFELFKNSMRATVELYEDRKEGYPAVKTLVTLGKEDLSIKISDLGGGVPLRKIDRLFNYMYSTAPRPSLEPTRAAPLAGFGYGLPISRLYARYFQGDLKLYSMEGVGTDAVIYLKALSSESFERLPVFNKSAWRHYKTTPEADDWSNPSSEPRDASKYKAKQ

Cc1ccc(O)cc1 [p-C, 4-methylphenol]
IC50: 3.52 µM
